# Experimental data published in ChEMBL document CHEMBL1154119, “Rational design, synthesis and characterization of potent, non-peptidic Smac mimics/XIAP inhibitors as proapoptotic agents for cancer therapy” (Bioorg Med Chem, 2009).
# Tests used:
# HL-60 = test: Cytotoxicity against human HL60 cells after 96 hrs by MTT assay; conditions: HL-60, 96 h
# PC-3 = test: Cytotoxicity against human PC3 cells after 96 hrs by MTT assay; conditions: PC-3, 96 h
# [1] = Metabolic stability of compound in phosphate buffer in presence of human CYP3A4 and NADPH; assay type: ADME
# MDA-MB-231 = test: cells; conditions: Homo sapiens, MDA-MB-231, 96 h
# Description: Cytotoxicity against human MDA-MB-231 cells after 96 hrs by MTT assay
# [2] = molecular target: T1, E3 ubiquitin-protein ligase XIAP (Homo sapiens, UniProt P98170)
# Description: Binding affinity to human recombinant XIAP linker BIR2-BIR3 expressed in Escherichia coli BL21 by fluorescence polarization assay
# [3] = Solubility at pH 7.4; assay type: physicochemical; conditions: buffer
# [4] = Solubility at pH 3; assay type: physicochemical; conditions: buffer
# [5] = molecular target: T1, E3 ubiquitin-protein ligase XIAP; remark: listed apart in the source
# Description: Binding affinity to human recombinant XIAP BIR3 domain expressed in Escherichia coli BL21 by fluorescence polarization assay
# T1 sequence (P98170 whole entry): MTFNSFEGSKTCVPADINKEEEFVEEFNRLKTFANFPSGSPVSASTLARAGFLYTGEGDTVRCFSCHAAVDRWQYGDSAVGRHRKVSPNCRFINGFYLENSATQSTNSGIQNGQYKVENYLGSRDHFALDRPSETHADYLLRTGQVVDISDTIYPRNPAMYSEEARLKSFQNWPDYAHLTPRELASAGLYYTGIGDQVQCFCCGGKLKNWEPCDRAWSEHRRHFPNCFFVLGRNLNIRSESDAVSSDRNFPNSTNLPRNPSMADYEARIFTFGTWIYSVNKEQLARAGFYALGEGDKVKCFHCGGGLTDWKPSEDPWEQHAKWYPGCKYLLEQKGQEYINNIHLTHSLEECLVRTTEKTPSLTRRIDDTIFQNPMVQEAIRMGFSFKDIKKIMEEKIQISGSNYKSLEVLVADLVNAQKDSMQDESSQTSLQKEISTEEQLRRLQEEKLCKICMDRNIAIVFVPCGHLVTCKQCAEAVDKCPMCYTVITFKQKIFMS
Stability [1],IC50 (MDA-MB-231),IC50 [2],solubility [3],solubility [4],IC50 [5],SMILES,IC50 (HL-60),IC50 (PC-3)
83%,0.146 µM,–,–,–,–,CC[C@H](NC)C(=O)N[C@H]1CCC[C@H]2CC[C@@H](C(=O)NC(c3ccccc3)c3ccccc3)N2C1=O,20.2 µM,56.9 µM
87%,> 100 µM,–,–,–,–,CC[C@H](N)C(=O)N[C@H]1CCC[C@H]2CC[C@@H](C(=O)NC(c3ccccc3)c3ccccc3)N2C1=O,24.5 µM,> 100 µM
86%,2.3 µM,–,–,–,–,CC[C@H](NC)C(=O)N[C@@H]1C(=O)N2[C@@H](CC[C@@H]1CCN)CC[C@H]2C(=O)NC(c1ccccc1)c1ccccc1,31 µM,> 100 µM
65%,0.93 µM,–,–,–,–,CC[C@H](N)C(=O)N[C@@H]1C(=O)N2[C@@H](CC[C@@H]1CCNC(=O)c1ccccc1)CC[C@H]2C(=O)NC(c1ccccc1)c1ccccc1,50.7 µM,> 100 µM
65%,10.8 µM,–,–,–,–,CC[C@H](N)C(=O)N[C@@H]1C(=O)N2[C@@H](CC[C@@H]1CCNC(=O)NCc1ccccc1)CC[C@H]2C(=O)NC(c1ccccc1)c1ccccc1,83.3 µM,> 100 µM
81%,0.141 µM,0.027 µM,Soluble,Soluble,0.11 µM,CC[C@H](NC)C(=O)N[C@@H]1C(=O)N2[C@@H](CC[C@@H]1CCNCc1ccccc1)CC[C@H]2C(=O)NC(c1ccccc1)c1ccccc1,5.2 µM,7.8 µM
51%,1.2 µM,–,–,–,–,CC[C@H](NC)C(=O)N[C@@H]1C(=O)N2[C@@H](CC[C@@H]1CCNC(=O)NCc1ccccc1)CC[C@H]2C(=O)NC(c1ccccc1)c1ccccc1,52.2 µM,83.5 µM
–,8 µM,–,–,–,–,CCNCC[C@H]1CC[C@H]2CC[C@@H](C(=O)NC(c3ccccc3)c3ccccc3)N2C(=O)[C@H]1NC(=O)[C@@H](N)CC,62.8 µM,> 100 µM
81%,–,–,–,–,–,CC[C@H](N)C(=O)N[C@@H]1C(=O)N2[C@@H](CC[C@@H]1CNC(=O)c1ccccc1)CC[C@H]2C(=O)NC(c1ccccc1)c1ccccc1,36 µM,80.1 µM

# Further lines, the compound ahead of its results:
SMILES,Stability [1],IC50 (MDA-MB-231),IC50 [2],solubility [3],solubility [4],IC50 [5],IC50 (HL-60),IC50 (PC-3)
CC[C@H](NC)C(=O)N[C@@H]1C(=O)N2[C@@H](CC[C@@H]1CO)CC[C@H]2C(=O)NC(c1ccccc1)c1ccccc1,86%,[…],–,–,–,–,26.1 µM,> 100 µM
CC[C@H](NC)C(=O)N[C@@H]1C(=O)N2[C@@H](CC[C@@H]1CN)CC[C@H]2C(=O)NC(c1ccccc1)c1ccccc1,78%,0.542 µM,–,–,–,–,51.8 µM,51.7 µM
CC[C@H](N)C(=O)N[C@@H]1C(=O)N2[C@@H](CC[C@@H]1CO)CC[C@H]2C(=O)NC(c1ccccc1)c1ccccc1,79%,1.03 µM,–,–,–,–,6.5 µM,> 100 µM
CCNCC[C@H]1CC[C@H]2CC[C@@H](C(=O)NC(c3ccccc3)c3ccccc3)N2C(=O)[C@H]1NC(=O)[C@H](CC)NC,90%,1.3 µM,–,–,–,–,76.4 µM,> 100 µM
CC[C@H](N)C(=O)N[C@@H]1C(=O)N2[C@@H](CC[C@@H]1CCN)CC[C@H]2C(=O)NC(c1ccccc1)c1ccccc1,75%,12.9 µM,0.086 µM,–,–,–,25 µM,85.2 µM
CC[C@H](NC)C(=O)N[C@@H]1C(=O)N2[C@@H](CC[C@@H]1CCNC(=O)c1ccccc1)CC[C@H]2C(=O)NC(c1ccccc1)c1ccccc1,43%,0.21 µM,–,–,–,–,32.6 µM,> 100 µM
CC[C@H](N)C(=O)N[C@@H]1C(=O)N2[C@@H](CC[C@@H]1CCNCc1ccccc1)CC[C@H]2C(=O)NC(c1ccccc1)c1ccccc1,–,0.4 µM,–,–,–,–,15.4 µM,39.2 µM
CC[C@H](N)C(=O)N[C@@H]1C(=O)N2[C@@H](CC[C@@H]1CCO)CC[C@H]2C(=O)NC(c1ccccc1)c1ccccc1,–,1.8 µM,–,–,–,–,> 100 µM,> 100 µM
CC[C@H](NC)C(=O)N[C@@H]1C(=O)N2[C@@H](CC[C@@H]1CCO)CC[C@H]2C(=O)NC(c1ccccc1)c1ccccc1,–,0.173 µM,–,–,–,–,74.8 µM,> 100 µM
CC[C@H](N)C(=O)N[C@@H]1C(=O)N2[C@@H](CC[C@@H]1CN)CC[C@H]2C(=O)NC(c1ccccc1)c1ccccc1,93%,6.03 µM,–,–,–,–,69.3 µM,> 100 µM
CCNC[C@H]1CC[C@H]2CC[C@@H](C(=O)NC(c3ccccc3)c3ccccc3)N2C(=O)[C@H]1NC(=O)[C@@H](N)CC,81%,0.286 µM,–,–,–,–,84 µM,> 100 µM
CC[C@H](N)C(=O)N[C@@H]1C(=O)N2[C@@H](CC[C@@H]1CNC(=O)NCc1ccccc1)CC[C@H]2C(=O)NC(c1ccccc1)c1ccccc1,73%,3.4 µM,–,–,–,–,51 µM,> 100 µM
CC[C@H](N)C(=O)N[C@@H]1C(=O)N2[C@@H](CC[C@@H]1CNCc1ccccc1)CC[C@H]2C(=O)NC(c1ccccc1)c1ccccc1,–,0.099 µM,–,–,–,–,13.1 µM,24.1 µM
